Laboratory results reported in ChEMBL document CHEMBL3739366, “Discovery of HTL6641, a dual orexin receptor antagonist with differentiated pharmacodynamic properties” (Medchemcomm, 2015).
pIC50, pKi: −log10 of the molar value.

Key:
[1] = biological target: T1, Orexin/Hypocretin receptor type 1 (Homo sapiens, UniProt O43613); test: Displacement of [3H]-4-(2,6-Difluoro-4-methoxybenzyl)-2-(5,6-dimethoxypyridin-3-yl)-2H-1,2,4-benzothiadiazin-3(4H)-one 1,1-dioxide from orexin receptor-1 (unknown origin) after 90 mins
T1 sequence (O43613 whole entry): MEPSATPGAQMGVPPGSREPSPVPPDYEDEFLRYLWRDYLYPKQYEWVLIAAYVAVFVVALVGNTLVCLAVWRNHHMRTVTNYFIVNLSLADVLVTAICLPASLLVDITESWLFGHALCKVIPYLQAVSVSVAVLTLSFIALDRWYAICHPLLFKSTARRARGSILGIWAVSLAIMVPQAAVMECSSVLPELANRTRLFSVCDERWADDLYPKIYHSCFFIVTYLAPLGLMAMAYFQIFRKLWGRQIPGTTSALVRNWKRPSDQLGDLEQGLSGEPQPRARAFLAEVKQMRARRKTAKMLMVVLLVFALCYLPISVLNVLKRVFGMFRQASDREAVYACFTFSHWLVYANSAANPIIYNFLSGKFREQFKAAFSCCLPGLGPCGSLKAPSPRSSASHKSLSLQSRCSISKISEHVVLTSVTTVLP

[2] = Mean residence time in Sprague-Dawley rat; format: ADME, organism-based; settings: in vivo
[3] = Half life in beagle dog at 1 mg/kg, po; format: ADME, organism-based, Canis lupus familiaris; settings: in vivo
[4] = test system: Rattus norvegicus; test: AUC (infinity) in Sprague-Dawley rat at 2 mg/kg, po; format: ADME, organism-based; set-up: dose 2 mg/kg, route oral, time infinity; settings: in vivo
[5] = Tmax in Sprague-Dawley rat at 2 mg/kg, po; format: ADME, organism-based; settings: in vivo
[6] = biological target: T2, Cytochrome P450 2C8 (Homo sapiens, UniProt P10632); test: Inhibition of CYP2C8 (unknown origin); format: ADME
T2 sequence (P10632 whole entry): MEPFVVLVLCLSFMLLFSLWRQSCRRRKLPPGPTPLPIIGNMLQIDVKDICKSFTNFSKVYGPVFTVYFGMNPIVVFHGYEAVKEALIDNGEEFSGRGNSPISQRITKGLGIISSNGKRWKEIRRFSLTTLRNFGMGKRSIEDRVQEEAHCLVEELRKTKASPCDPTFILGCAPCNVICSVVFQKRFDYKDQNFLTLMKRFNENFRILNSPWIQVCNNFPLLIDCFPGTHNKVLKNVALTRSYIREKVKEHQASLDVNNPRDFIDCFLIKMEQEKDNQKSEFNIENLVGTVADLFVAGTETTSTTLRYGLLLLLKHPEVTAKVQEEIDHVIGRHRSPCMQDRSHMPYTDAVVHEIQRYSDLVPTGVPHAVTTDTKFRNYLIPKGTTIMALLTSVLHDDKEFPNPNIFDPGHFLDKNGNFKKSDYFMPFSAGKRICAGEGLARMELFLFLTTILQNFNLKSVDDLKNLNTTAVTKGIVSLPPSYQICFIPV

[7] = biological target: Voltage-gated inwardly rectifying potassium channel KCNH2 (Homo sapiens, UniProt Q12809); test: Inhibition of human ERG
[8] = Efflux ratio of the compound in human Caco2 cells; format: ADME, cell-based; settings: Caco-2
[9] = Plasma protein binding in human; format: ADME, cell-free; settings: read-out: PPB (converted)
[10] = Plasma protein binding in dog; format: ADME, cell-free, Canis lupus familiaris; settings: read-out: PPB (converted)
[11] = Half life in rat hepatocytes; format: ADME, cell-based, Hepatocyte
[12] = Half life in human hepatocytes; format: ADME, cell-based, Hepatocyte
[13] = test system: Rattus norvegicus; test: Ex-vivo receptor occupancy of orexin receptor-2 Sprague-Dawley rat frontal cortex using [3H]EMPA at 1 mg/kg, po after 1 hr by autoradiography relative to control; format: functional
[14] = Plasma concentration in Sprague-Dawley rat plasma at 1 mg/kg, po after 1 hr; format: ADME, organism-based
[15] = test system: Rattus norvegicus; test: Antiinsomnic activity in CD1 rat assessed as increase of REM sleep at 10 mg/kg, po administered at circadian time 18 hrs measured after 3 hrs; format: functional
[16] = test system: Rattus norvegicus; test: Antiinsomnic activity in CD1 rat assessed as increase of NREM sleep at 3 mg/kg, po administered at circadian time 18 hrs measured after 3 hrs; format: functional
[17] = test system: Rattus norvegicus; test: Effect on latency to first NREM episode CD1 rat assessed as reduction of at 3 and 10 mg/kg, po administered at circadian time 18 hrs; format: ADME, organism-based; settings: in vivo
[18] = biological target: T3, Orexin/Hypocretin receptor type 1 (Homo sapiens) (UniProt O43613)
T3 sequence (whole entry): T1 sequence (O43613 whole entry)

[19] = biological target: T4, Orexin receptor type 2 (Homo sapiens) (UniProt O43614)
T4 sequence (whole entry): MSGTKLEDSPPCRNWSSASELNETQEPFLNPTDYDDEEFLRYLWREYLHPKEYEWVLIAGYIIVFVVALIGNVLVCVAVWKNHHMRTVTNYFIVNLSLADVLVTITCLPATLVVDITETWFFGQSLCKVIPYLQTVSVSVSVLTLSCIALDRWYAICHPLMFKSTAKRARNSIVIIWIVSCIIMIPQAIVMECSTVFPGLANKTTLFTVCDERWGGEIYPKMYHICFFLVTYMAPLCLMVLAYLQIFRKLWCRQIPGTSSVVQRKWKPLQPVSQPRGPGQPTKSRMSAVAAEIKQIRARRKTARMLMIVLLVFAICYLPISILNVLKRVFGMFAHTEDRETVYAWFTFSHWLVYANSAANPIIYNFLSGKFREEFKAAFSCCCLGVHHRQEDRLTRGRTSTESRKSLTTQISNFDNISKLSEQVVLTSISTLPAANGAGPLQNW
Description: Binding affinity to orexin receptor-2 (unknown origin) assessed as dissociation half-life by SPR assay

[20] = biological target: T4, Orexin receptor type 2 (Homo sapiens); remark: listed apart in the source
Description: Binding affinity to orexin receptor-2 (unknown origin) assessed as dissociation half-life by Motulsky-Mahan radioligand binding assay

Chain of Voltage-gated inwardly rectifying potassium channel KCNH2 (Q12809 whole entry): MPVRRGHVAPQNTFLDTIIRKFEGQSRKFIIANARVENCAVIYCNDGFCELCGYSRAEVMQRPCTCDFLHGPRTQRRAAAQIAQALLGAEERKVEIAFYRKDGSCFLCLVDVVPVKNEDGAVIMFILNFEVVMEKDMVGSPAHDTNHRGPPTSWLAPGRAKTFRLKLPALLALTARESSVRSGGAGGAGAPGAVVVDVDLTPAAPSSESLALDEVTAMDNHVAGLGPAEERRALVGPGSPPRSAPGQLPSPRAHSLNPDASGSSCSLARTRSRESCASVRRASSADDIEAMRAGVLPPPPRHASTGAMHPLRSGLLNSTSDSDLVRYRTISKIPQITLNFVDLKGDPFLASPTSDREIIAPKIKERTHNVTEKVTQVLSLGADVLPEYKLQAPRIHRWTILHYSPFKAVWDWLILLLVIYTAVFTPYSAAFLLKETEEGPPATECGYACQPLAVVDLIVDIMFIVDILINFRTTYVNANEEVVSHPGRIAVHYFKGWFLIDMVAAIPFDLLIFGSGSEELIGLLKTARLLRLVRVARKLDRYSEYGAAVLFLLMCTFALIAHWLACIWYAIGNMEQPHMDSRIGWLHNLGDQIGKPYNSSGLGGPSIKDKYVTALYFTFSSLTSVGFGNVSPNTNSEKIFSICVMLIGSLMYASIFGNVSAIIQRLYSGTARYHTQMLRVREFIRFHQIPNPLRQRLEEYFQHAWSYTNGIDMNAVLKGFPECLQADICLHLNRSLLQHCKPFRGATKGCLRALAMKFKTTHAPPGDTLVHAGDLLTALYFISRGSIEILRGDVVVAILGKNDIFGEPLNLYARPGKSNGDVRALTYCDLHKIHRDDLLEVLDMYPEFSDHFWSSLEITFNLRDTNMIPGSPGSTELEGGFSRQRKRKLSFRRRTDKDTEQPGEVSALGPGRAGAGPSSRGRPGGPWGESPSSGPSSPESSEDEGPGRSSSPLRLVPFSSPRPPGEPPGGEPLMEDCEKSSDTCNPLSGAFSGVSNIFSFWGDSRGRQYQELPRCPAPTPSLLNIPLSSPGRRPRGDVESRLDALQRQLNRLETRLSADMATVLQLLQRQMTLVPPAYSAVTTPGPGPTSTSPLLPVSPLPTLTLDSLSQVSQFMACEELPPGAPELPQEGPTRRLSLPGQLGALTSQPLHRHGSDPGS

**Q.** With `COc1cc(N2C(=O)N(Cc3c(F)cc(F)cc3F)c3ncccc3S2(=O)=O)cnc1OC` as the compound, how does the pKi [1] read?
**A.** The pKi was 7.70.

**Q.** What about the MRT [2] of the same compound?
**A.** Its MRT is 114 min.

**Q.** And the half-life [3]?
**A.** Its half-life is 426 min.

**Q.** And the AUC [4]?
**A.** The AUC was 1220 ng·h/mL.

**Q.** And the Tmax [5]?
**A.** The Tmax was 30 min.

**Q.** What about the pIC50 [6] of the same compound?
**A.** Its pIC50 is less than 5.00.

**Q.** And the pIC50 [7]?
**A.** Its pIC50 is less than 5.00.

**Q.** What about the efflux ratio [8] of the same compound?
**A.** The efflux ratio was 0.7.

**Q.** What about the fraction unbound [9] of the same compound?
**A.** The fraction unbound was 0.007.

**Q.** And the fraction unbound [10]?
**A.** The fraction unbound was 0.019.

**Q.** What about the half-life [11] of the same compound?
**A.** Its half-life is greater than 110 min.

**Q.** What about the half-life [12] of the same compound?
**A.** The half-life was greater than 250 min.

**Q.** What about the Occ [13] of the same compound?
**A.** The Occ was 57%.

**Q.** What about the concentration at 1 h [14] of the same compound?
**A.** Its concentration at 1 h is 72 ng/mL.

**Q.** What about the Activity [15] of the same compound?
**A.** The Activity was 69.6%.

**Q.** And the Activity [16]?
**A.** Its Activity is 28.8%.

**Q.** What about the Activity [17] of the same compound?
**A.** The Activity was “Non-toxic”.

**Q.** What about the T1/2 [18] of the same compound?
**A.** The T1/2 was 0.8 min.

**Q.** What about the T1/2 [19] of the same compound?
**A.** The T1/2 was 4.2 min.

**Q.** And the T1/2 [20]?
**A.** Its T1/2 is 7.6 min.
